In publication PMC7594079, “Insights into the Function and Evolution of Taste 1 Receptor Gene Family in the Carnivore Fish Gilthead Seabream (Sparus aurata)” (International Journal of Molecular Sciences, 2020):

What was measured:
Format in all cases: cell-based
[1] = tested on: pGL3-NFAT-luc reporter (Ca2+/NFAT signaling); test: pGL3-NFAT-luc construct responsiveness in transiently transfected HEK293 cells; settings: 10-fold serial dilutions
Text: The luciferase reporter system used in the present study is based on a pGL3-plasmid including three (N)uclear (F)actor of (A)ctivated T cells (NFAT)-responsive elements located upstream of an interleukin-2 (IL2) minimal promoter driving expression of the firefly luciferase reporter gene (pGL3-NFAT-luc plasmid; Addgene (Watertown, MA, USA), cat. number. 17870). To evaluate pGL3-NFAT-luc construct responsiveness, transiently transfected HEK293 cells were stimulated with Phorbol 12-myristate 13-acetate (PMA) and ionomycin, two compounds known to modulate NFAT signaling by mobilization of intracellular Ca^2+ storages.
Figure 4 Evaluation of pGL3-NFAT-luc construct responsiveness to 10-fold serial dilutions to PMA (A) and ionomycin (B) in transiently transfected HEK293 cells. RLU%: Relative Luminescence Unit percentage. […] BL (Basal Levels) = 100% RLU. Different lowercase letters (a,b) on top of bars indicate significant differences (p < 0.05) between concentrations, assessed by one-way ANOVA followed by Tukey’s Multiple Comparison Test (GraphPad Prism version 5.00 Software, La Jolla, CA, USA). […]

[2] = target: T1, saT1R2a/R3 (Sparus aurata, UniProt A0A671TK95+A0A671VZB3); test: saT1R2a/R3 heterodimer transiently transfected in stable pGL3-NFAT-luc-HEK293 (Cl.3) cells, luciferase reporter; settings: saT1R2a/R3; tested 1–500 mM
T1 sequence (A0A671TK95 20-825): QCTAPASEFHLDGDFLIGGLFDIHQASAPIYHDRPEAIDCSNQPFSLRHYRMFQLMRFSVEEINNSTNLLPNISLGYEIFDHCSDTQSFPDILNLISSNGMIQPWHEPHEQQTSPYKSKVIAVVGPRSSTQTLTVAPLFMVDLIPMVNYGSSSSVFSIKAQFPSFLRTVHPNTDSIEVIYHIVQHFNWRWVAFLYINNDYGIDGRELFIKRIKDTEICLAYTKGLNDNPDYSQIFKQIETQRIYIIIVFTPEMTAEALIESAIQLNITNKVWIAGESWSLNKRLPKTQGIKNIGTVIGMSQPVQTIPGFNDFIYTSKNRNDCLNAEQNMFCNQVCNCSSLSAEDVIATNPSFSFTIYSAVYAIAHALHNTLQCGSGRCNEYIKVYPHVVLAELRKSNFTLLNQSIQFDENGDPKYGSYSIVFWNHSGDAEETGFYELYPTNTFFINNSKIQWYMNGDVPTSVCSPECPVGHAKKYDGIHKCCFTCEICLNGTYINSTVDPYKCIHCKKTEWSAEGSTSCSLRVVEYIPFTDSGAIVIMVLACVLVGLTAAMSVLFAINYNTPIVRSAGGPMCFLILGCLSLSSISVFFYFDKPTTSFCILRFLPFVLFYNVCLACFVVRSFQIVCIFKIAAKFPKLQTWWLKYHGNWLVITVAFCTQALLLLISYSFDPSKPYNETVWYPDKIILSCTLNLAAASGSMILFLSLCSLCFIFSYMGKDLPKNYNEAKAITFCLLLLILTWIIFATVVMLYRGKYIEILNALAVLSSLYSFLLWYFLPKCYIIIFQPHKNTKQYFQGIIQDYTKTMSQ
T1 sequence (A0A671VZB3 24-860): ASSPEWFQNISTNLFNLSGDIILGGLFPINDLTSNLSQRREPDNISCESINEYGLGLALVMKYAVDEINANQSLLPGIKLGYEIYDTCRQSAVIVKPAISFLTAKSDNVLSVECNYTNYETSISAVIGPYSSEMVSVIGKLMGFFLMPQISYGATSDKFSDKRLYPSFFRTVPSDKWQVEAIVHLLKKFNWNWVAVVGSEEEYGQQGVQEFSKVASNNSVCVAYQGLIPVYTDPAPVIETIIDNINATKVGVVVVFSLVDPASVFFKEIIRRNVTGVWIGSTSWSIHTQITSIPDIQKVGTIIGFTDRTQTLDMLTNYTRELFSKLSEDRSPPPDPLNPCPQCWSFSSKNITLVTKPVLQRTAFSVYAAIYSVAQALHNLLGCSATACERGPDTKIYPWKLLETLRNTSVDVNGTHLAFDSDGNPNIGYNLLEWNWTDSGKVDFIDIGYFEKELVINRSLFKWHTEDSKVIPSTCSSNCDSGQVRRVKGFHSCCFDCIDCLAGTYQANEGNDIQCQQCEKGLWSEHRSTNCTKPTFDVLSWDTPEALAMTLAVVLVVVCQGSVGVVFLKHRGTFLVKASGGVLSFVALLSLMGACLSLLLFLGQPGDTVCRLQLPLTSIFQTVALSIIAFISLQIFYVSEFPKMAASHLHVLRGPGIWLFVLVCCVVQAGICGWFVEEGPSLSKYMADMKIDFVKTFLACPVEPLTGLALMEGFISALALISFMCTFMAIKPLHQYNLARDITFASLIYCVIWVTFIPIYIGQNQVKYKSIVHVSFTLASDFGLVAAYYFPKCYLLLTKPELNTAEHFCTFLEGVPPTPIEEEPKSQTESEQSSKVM
Text: (§1) Figure 6 Amino acid Log-dose response curves of activation in heterologous co-transfected (Cl.3) cells with saT1R1/3 (green dots), saT1R2a/3 (red squares) and saT1R2b/3 (black triangles) heterodimers. Evaluation of L-AA responses was based on the RLU mean ± SEM of four independent determinations normalized to the mean response of the same transfections stimulated with reduced assay medium (Basal Medium Eagle w/o L-glutamate (BME) + 1% FBS), and expressed as the percentage relative to basal levels (BL).
(§2) HEK293 cells were cultured in standard medium DMEM (Gibco, Thermo Fisher, Saint Louis, MO, USA) containing 10% FBS, penicillin (100 U/mL) and streptomycin ([…]) at 37 °C, with a humidified atmosphere at 5% CO2. pGL3-NFAT-luc-HEK293 stable clones were generated by co-transfections of pGL3-NFAT-luc and tgCMV/HyTK plasmids (50:1), the latter harboring the hygromycin phosphotransferase gene, using Lipofectamine LTX according to supplier’s protocols (Thermo Fisher, Saint Louis, MO, USA). Initially, HEK293 cells were selected using DMEM containing 400 μg/mL hygromycin B (Sigma, Darmstadt, Germany) in 24-well plates for two weeks; 24 colonies were further grown out in 96-well plates under reduced hygromycin selection (200 µg/mL) for three weeks. Potentially resistant NFAT-luc-HEK293 clones (n = 22) were validated after incubation in assay medium (DMEM + 1% FBS) containing PMA or Ionomycin (Sigma, Darmstadt, Germany) for 18 h (triplicates, 50,000 cells/well). Luciferase activity was quantified with ONE-Glo™ EX Reagent Kit (Promega, Madison, WI, USA) using a 96-microplate TECAN reader (Trading AG, Switzerland).
(§3) saT1Rs (saT1R1, saT1R2a, saT1R2b saT1R3) and saGαi1-2 genes were RT-PCR amplified using 5’ and 3’ flanking primers carrying HindIII and XhoI restriction sites, respectively. Gel-purified fragments were cloned into pGEM-T Easy vectors, re-sequenced, digested and subcloned into pcDNA™3 (Invitrogen, Carlsbad, CA, USA). Effective saT1R cloning into pcDNA™3 was further verified by HindIII/XhoI digestion. Transient co-transfections were done in 6-well plates (confluence ~70–80%) using 100 μL of reduced serum medium (Opti-MEM, Gibco, Thermo Fisher, Saint Louis, MO, USA) containing 150 ng of each selected pcDNA™3 construct, 1:10 charge ratio of Enhanced Green Fluorescent expressing construct (EGFP; positive control), and pBluescript II SK (+) vector DNA (Addgene, Watertown, MA, USA) up to 1 µg of totally transfected DNA. Following 24 h incubation, cells were washed with fresh standard medium and plated in polylysine treated plates for additional 24 h. Cells were then stimulated with L-AAs and sugar compounds for 18 h in a reduced assay medium (BME w/o L-glutamate; Gibco, Thermo Fisher, Saint Louis, MO, USA) + 1% FBS), to prevent unspecific Ca^2+/NFAT signaling activation and potential saT1R desensitization. All L-AAs and sugars used for in vitro experiments were obtained from Merck KGaA (Darmstadt, Germany).

[3] = target: T2, saT1R2b/R3 (Sparus aurata, UniProt A0A671TG56+A0A671VZB3); test: saT1R2b/R3 heterodimer transiently transfected in stable pGL3-NFAT-luc-HEK293 (Cl.3) cells, luciferase reporter; settings: saT1R2b/R3; tested 1–500 mM
T2 sequence (A0A671TG56 20-821): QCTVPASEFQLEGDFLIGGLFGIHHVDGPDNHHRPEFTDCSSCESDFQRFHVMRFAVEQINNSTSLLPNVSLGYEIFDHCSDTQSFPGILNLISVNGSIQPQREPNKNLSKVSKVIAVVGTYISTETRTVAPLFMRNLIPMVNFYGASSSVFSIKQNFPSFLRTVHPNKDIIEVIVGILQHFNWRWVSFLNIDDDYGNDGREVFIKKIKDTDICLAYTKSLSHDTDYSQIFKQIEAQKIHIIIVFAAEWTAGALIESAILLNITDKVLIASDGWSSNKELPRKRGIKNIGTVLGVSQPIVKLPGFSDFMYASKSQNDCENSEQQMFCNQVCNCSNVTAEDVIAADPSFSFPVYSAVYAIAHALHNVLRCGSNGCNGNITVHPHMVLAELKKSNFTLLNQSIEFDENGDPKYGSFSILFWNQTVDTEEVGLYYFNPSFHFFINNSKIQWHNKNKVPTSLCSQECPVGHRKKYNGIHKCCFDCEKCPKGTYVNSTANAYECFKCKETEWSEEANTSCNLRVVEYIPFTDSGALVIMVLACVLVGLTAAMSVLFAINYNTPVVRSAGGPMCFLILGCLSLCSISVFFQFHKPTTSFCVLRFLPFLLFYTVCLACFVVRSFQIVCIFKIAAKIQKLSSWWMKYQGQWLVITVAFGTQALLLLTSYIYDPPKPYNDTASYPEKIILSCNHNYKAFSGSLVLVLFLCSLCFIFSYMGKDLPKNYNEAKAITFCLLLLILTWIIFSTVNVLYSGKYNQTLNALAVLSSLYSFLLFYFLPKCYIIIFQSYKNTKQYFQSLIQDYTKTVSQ
T2 sequence (A0A671VZB3 24-860): T1 sequence (A0A671VZB3 24-860)
Text: as §1, §2, §3

Row | concentration with significant activation [2] [mM] | concentration with significant activation [3] [mM] | SMILES | luminescence response of pGL3-NFAT-luc construct [1]
1 |  |  | CCCCCCCCCCCCCC(=O)O[C@@H]1[C@@H](C)[C@@]2(O)[C@@H](C=C(CO)C[C@]3(O)C(=O)C(C)=C[C@@H]23)[C@@H]2C(C)(C)[C@]12OC(C)=O [PMA, Phorbol 12-myristate 13-acetate] | significant luminescence dose-response increases
2 | 100 | 100 | OC[C@@H]1O[C@@H](O[C@@]2(CO)O[C@@H](CO)[C@H](O)[C@H]2O)[C@@H](O)[C@H](O)[C@H]1O [L-Sucrose] | 
3 |  |  | C[C@H](CCC(=O)O)C[C@H](C)C[C@H](C)C(=O)/C=C(\O)[C@H](C)C[C@H](C)C/C=C/[C@@H](C)[C@@H](O)[C@@H](C)[C@@H](O)C[C@@H]1CC[C@@](C)([C@H]2CC[C@@](C)([C@@H](C)O)O2)O1 [ionomycin] | significant luminescence dose-response increases
